Here are results for 47 compounds from patent US9771378B2 (Denali Therapeutics, Inc., priority 2014, dated 2017).

pIC50: −log10 of the molar value.

The subject of the assay is Aβ42 (human neuroglioma H4 cells expressing human wild type APP751). The assay is described as follows: In vitro cell screening assay with sandwich ELISA quantification of Aβ42 peptide. In kind it is cell-based. The following applies: H4 cells stably expressing human wild type APP751; Pro293 chemically defined medium; compounds 0.003-10 μM; incubated overnight (16-18 h); supernatant Aβ42 by sandwich ELISA; normalized to DMSO and DAPT; read-out: Aβ42 H4 Prot Fre IC50. Summed up: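 H4 neuroglioma cells stably expressing human wild-type APP751 were treated in Pro293 medium with compounds (0.003-10 μM, 0.33% DMSO) for 16-18 h at 37° C. Secreted Aβ42 measured by sandwich ELISA (C-terminal capture, 4G8-HRP detection, TMB, 450 nm). IC50 by variable-slope sigmoidal regression on percent of DMSO control.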
On the technique in general: An ELISA detects its analyte on a solid surface through an enzyme-linked reagent.
Broadly, the pIC50 is the IC50 on a negative log10 scale, so that one unit is a factor of ten. For the compound `Cc1cn(-c2ccc(Nc3ncc4c(n3)N(C)C(c3cc(F)cc(F)c3)CO4)cc2C#N)cn1` (single isomer, unassigned; (+)) [Example 203A, (+)-5-((7-(3,5-difluorophenyl)-8-methyl-7,8-dihydro-6H-pyrimido [5,4-b] [1, 4]oxazin-2-yl)amino)-2-(4-methyl-1H-imidazol-1-yl) benzonitrile], the pIC50 is 7.80.
The same measure for `Cc1cc(-c2ccc(Nc3ncc4c(n3)N(C)C(c3cc(F)cc(F)c3)CO4)cc2)ccn1` (single isomer, unassigned; (-)) [Example 28A]: 5.71.
The value for `COc1cc(Nc2ncc3c(n2)N(C)C(c2cc(F)cc(F)c2)CO3)cnc1-n1cnc(C#N)c1` (single isomer, unassigned; (-)) [Example 211B, (−)-1-(5-((7-(3,5-difluorophenyl)-8-methyl-7,8-dihydro-6H-pyrimido [5,4-b] [1, 4]oxazin-2-yl)amino)-3-methoxypyridin-2-yl)-1H-imidazole-4-carbonitrile] was < 5.52; that for `COc1cc(Nc2ncc3c(n2)N(C)C(c2cc(F)ccc2C(F)(F)F)CO3)ccc1-n1cnc(C)c1` (single isomer, unassigned; (-)) [Example 105A] was 7.06.
As to `COc1cc(Nc2ncc3c(n2)N(C)[C@H](CO)CO3)ccc1-n1cnc(C)c1` [Example 177, (R)-(2-((3-methoxy-4-(4-methyl-1H-imidazol-1-yl)phenyl)amino)-8-methyl-7,8-dihydro-6H-pyrimido [5,4-b] [1, 4]oxazin-7-yl) methanol], the pIC50 is 6.58.
The same measure for `COc1cc(Nc2ncc3c(n2)N(C)C(C)CO3)ccc1-n1cnc(Cl)c1` (single isomer, unassigned; (-)) [Example 202A]: 6.78; for `COc1cc(Nc2ncc3c(n2)N(C)C(C2CCC(F)(F)CC2)CO3)cnc1-n1cnc(C)c1` (single isomer, unassigned; (+)) [Example 221A]: 7.62.
In the case of `COc1cc(Nc2ncc3c(n2)N(C)C(c2cc(F)cc(F)c2)CO3)ccc1-n1cnc(C)c1` (single isomer, unassigned; (-)) [Example 30A], the pIC50 is 6.75.
The same measure for `Cc1cn(-c2ccc(Nc3ncc4c(n3)N(C)C(c3cc(F)c(F)cc3F)CO4)cc2F)cn1` (single isomer, unassigned; (+)) [Example 98A]: 7.70; for `CN1c2nc(Nc3ccc(C#N)cc3)ncc2OCC1C(F)(F)F` (single isomer, unassigned; (+)) [Example 226A, (+)-4-((8-methyl-7-(trifluoromethyl)-7,8-dihydro-6H-pyrimido [5,4-b] [1, 4]oxazin-2-yl)amino) benzonitrile]: < 5.52.
For `COc1cc(Nc2ncc3c(n2)N(C)C(c2ccc(Cl)cc2C(F)(F)F)CO3)ccc1-n1cnc(C)c1` (single isomer, unassigned; (-)) [Example 112A], the pIC50 was 6.64.
The same measure for `Cc1cn(-c2ccc(Nc3ncc4c(n3)N3CCC[C@]3(C)CO4)cc2F)cn1` [Example 293, (R)-N-(3-fluoro-4-(4-methyl-1H-imidazol-1-yl)phenyl)-6a-methyl-6a, 7,8,9-tetrahydro-6H-pyrimido [5,4-b] pyrrolo [1,2-d] [1, 4] oxazin-2-amine]: 6.56; for `COc1cc(Nc2ncc3c(n2)N(C)C(C)(C)CO3)cnc1-n1cnc(C)c1` [Example 261]: 6.86.
For `COc1cc(Nc2ncc3c(n2)N(C)C(C(F)(F)F)CO3)ccc1-n1cnc(Cl)c1` (single isomer, unassigned; (+)) [Example 228A], the pIC50 was 6.48.
The same measure for `COc1cc(Nc2ncc3c(n2)N(C)C(c2ccccc2C(F)(F)F)CO3)ccc1-n1cnc(C)c1` (racemic) [Example 55]: 7.43; for `COc1nc(Nc2ncc3c(n2)N(C)C(c2cc(F)cc(F)c2)CO3)ccc1-c1cnn(C)c1` (single isomer, unassigned; (+)) [Example 184B]: < 5.52; for `COc1cc(Nc2ncc3c(n2)N(C)C2(CC2)CO3)ccc1-c1cnn(C)c1` [Example 269]: 6.15.
In the case of `Cc1cc(-c2ccc(Nc3ncc4c(n3)N(C)C(c3ccc(F)cc3Cl)CO4)cc2F)ccn1` (single isomer, unassigned; (-)) [Example 102B], the pIC50 is 5.87.
The value for `COc1ccc(Cl)c(C2COc3cnc(Nc4ccc(-n5cnc(C)c5)c(OC)c4)nc3N2C)c1` (single isomer, unassigned; (+)) [Example 167A] was 7.66; that for `Cc1cn(-c2ccc(Nc3ncc4c(n3)N(C)C(C3CCOCC3)CO4)cc2F)cn1` (single isomer, unassigned; (+)) [Example 109A] was 6.67.
The value for `COc1cc(Nc2ncc3c(n2)N(C)C(c2cc(F)c(F)c(F)c2)CO3)ccc1-c1ccnc(C)c1` (racemic) [Example 39] was 7.46; that for `COc1cc(Nc2ncc3c(n2)N(C)C(c2ccc(C(F)(F)F)cc2C(F)(F)F)CO3)ccc1-n1cnc(C)c1` (single isomer, unassigned; (+)) [Example 168B] was 7.12.
`Cc1cn(-c2ccc(Nc3ncc4c(n3)N(C)C(c3ccccc3C)CO4)cc2)cn1` (racemic) [Example 43]: the pIC50 is 6.67.
The value for `COc1cc(Nc2ncc3c(n2)N2CC(F)(F)C[C@H]2CO3)cnc1-n1cnc(C)c1` [Example 298, (S)-8,8-difluoro-N-(5-methoxy-6-(4-methyl-1H-imidazol-1-yl)pyridin-3-yl)-6a, 7,8,9-tetrahydro-6H-pyrimido [5,4-b] pyrrolo [1,2-d] [1, 4] oxazin-2-amine] was 6.75; that for `COc1ccc(C2COc3cnc(Nc4ccc(-n5cnc(C)c5)c(OC)c4)nc3N2C)c(Cl)c1` (racemic) [Example 86] was 7.42; that for `Cc1cn(-c2ccc(Nc3ncc4c(n3)N(C)C(c3cc(F)cc(F)c3)CO4)cc2F)cn1` (single isomer, unassigned; (+)) [Example 33A] was 7.85.
Consider `Cc1cn(-c2ccc(Nc3ncc4c(n3)N(C)C(C)CO4)cc2OC(F)(F)F)cn1` (single isomer, unassigned; (+)) [Example 213B], for which the pIC50 is < 5.52.
The value for `COc1cc(Nc2ncc3c(n2)N(C)C2(COC2)CO3)ccc1-n1cnc(C)c1` [Example 271] was 6.44; that for `COc1cc(Nc2ncc3c(n2)N(C)C(C)CO3)ccc1-n1cnc(C)c1` (racemic) [Example 52] was 6.69.
The same measure for `COc1cc(Nc2ncc3c(n2)N(C)C(C(F)(F)F)CO3)ccc1C#N` (single isomer, unassigned; (+)) [Example 230A, (+)-2-methoxy-4-((8-methyl-7-(trifluoromethyl)-7,8-dihydro-6H-pyrimido [5,4-b] [1, 4]oxazin-2-yl)amino) benzonitrile]: < 5.52; for `COc1cc(Nc2ncc3c(n2)N(C)C(C2COC2)CO3)ccc1-n1cnc(C)c1` (single isomer, unassigned; (+)) [Example 241B]: 6.47.
The same measure for `COc1ccc(C)c(C2COc3cnc(Nc4ccc(-n5cnc(C)c5)c(OC)c4)nc3N2C)c1` (single isomer, unassigned; (-)) [Example 175B]: 7.02; for `Cc1cn(-c2ccc(Nc3ncc4c(n3)N(C)C(Cc3ccccc3)CO4)cc2F)cn1` (single isomer, unassigned; (-)) [Example 59B]: 6.34.
`COc1cc(Nc2ncc3c(n2)N(C)C(C2CCOCC2)CO3)ccc1-n1cnc(C)c1` (racemic) [Example 50]: the pIC50 is 6.76.
As for `COc1cc(Nc2ncc3c(n2)N(C)C(c2ccc(F)cc2Cl)CO3)ccc1-n1cnc(C)c1` (single isomer, unassigned; (-)) [Example 93A], the pIC50 is 6.72.
The same measure for `COc1ccc(C)c(C2COc3cnc(Nc4cnc(-n5cnc(C)c5)c(OC)c4)nc3N2C)c1` (single isomer, unassigned; (-)) [Example 207B]: 7.02.
The value for `COc1cc(Nc2ncc3c(n2)N(C)C(C)CO3)ccc1-n1cnc(Cl)c1` (single isomer, unassigned; (+)) [Example 202B] was 7.20; that for `Cc1cn(-c2ccc(Nc3ncc4c(n3)N(C)C(c3cc(F)cc(F)c3)CO4)cc2)cn1` (racemic) [Example 23] was 7.42; that for `COc1cc(Nc2ncc3c(n2)N(C)C2(COC2)CO3)cnc1-n1cnc(C)c1` [Example 272] was 6.27.
The value for `Cc1cn(-c2ccc(Nc3ncc4c(n3)N(C)C(c3ccc(F)cc3C(F)(F)F)CO4)cc2F)cn1` (single isomer, unassigned; (+)) [Example 99A] was 6.69.
Turning to `COc1cc(Nc2ncc3c(n2)N(C)C(c2ccccc2OC(F)(F)F)CO3)ccc1-n1cnc(C)c1` (single isomer, unassigned; (+)) [Example 60B], the pIC50 is 7.11.
In the case of `COc1ccc(C2COc3cnc(Nc4cnc(-n5cnc(C)c5)c(OC)c4)nc3N2C)c(C)c1` (single isomer, unassigned; (-)) [Example 215B], the pIC50 is 7.02.
The value for `Cc1cn(-c2ccc(Nc3ncc4c(n3)N(C)C3(CCCC3)CO4)cc2F)cn1` [Example 279] was 6.60.
For `COc1cc(Nc2ncc3c(n2)N(C)C(c2ccc(F)cc2)CO3)ccc1-c1ccnc(C)c1` (single isomer, unassigned; (+)) [Example 61B], the pIC50 is 7.24.
The same measure for `Cc1cn(-c2ccc(Nc3ncc4c(n3)N(C)C(c3ccc(F)cc3F)CO4)cc2F)cn1` (single isomer, unassigned; (+)) [Example 69A]: 7.16.
Turning to `COc1cc(Nc2ncc3c(n2)N(C)C(c2cc(F)ccc2C(F)(F)F)CO3)ccc1-n1cnc(C)c1` (single isomer, unassigned; (+)) [Example 105B], the pIC50 was 7.29.
The value for `Cc1cn(-c2ccc(Nc3ncc4c(n3)N(C)C(c3ccc(F)cc3C(F)(F)F)CO4)cc2F)cn1` (single isomer, unassigned; (-)) [Example 99B] was 5.98.
